The text below walks through data of paper PMC12040169 (PLOS Biology, 2025).

Each structure is given as a SMILES string.

This data set can be described thus: in vitro. As to conditions: human, hela cells, % viability.
`O=C(C1CC2C=CC1C21CC1)N1CCN(c2nccs2)CC1` (stereo not shown) [CBK281640]: the viability at 28.5 h, 10 µM was 90.4%. In the case of `CCn1ncnc1CN(C)Cc1ccc2c(c1)CN(C)C2` [CBK306530], the viability at 28.5 h, 10 µM was found to be 86.1%. Under `Nc1ncc(-c2ccncc2)nc1NC1CCCCC1` [CBK063604] stands 80.9%; under `CCCCc1c(C)nc2ccc(Br)cc2c1SCCC(=O)O` [CBK126915], 93.4%; under `COc1cccc(CC(=O)N2CCOc3ncccc32)c1` [CBK305235], 98.4%. On to `Cc1cc(C(=O)N2CCc3c(sc4ncnc(N)c34)C2)sc1C` [CBK306420], for which the viability at 28.5 h, 10 µM turned out to be 99.4%. On to `CCn1cnc(S(=O)(=O)N2CCC(OCc3ccccc3)CC2)c1` [CBK305228], for which the viability at 28.5 h, 10 µM worked out at 73.1%.

On to `CC(C)(C)OC(=O)NC(C)(C)C(=O)N1CC(C(=O)O)C(c2cc3ccccc3o2)C1` (stereo not shown) [CBK003236], for which the viability at 28.5 h, 10 µM came out at 88%. Regarding `CC(=O)Nc1ccc(/C=N/NC(=O)CN2CCCCCCC2)cc1` [CBK261617], the viability at 28.5 h, 10 µM amounted to 88.8%. As to `CC(C)(C)c1ccc(-c2ccc3ccc(N)nc3n2)cc1` [CBK061872], the viability at 28.5 h, 10 µM is 79.3%. For the molecule `c1cc(-c2nnn[nH]2)ccc1OCc1nnn[nH]1` [CBK268083], the viability at 28.5 h, 10 µM worked out at 93.1%. Take `Cc1ccc(-n2c(C)cc(C(=O)CSc3n[nH]c(=O)n3C3CC3)c2C)cc1C` [CBK296764]: the viability at 28.5 h, 10 µM stood at 92.3%. As to `CN1C(=O)/C(=C2\SC(=S)N(C(Cc3ccccc3)C(=O)O)C2=O)c2ccccc21` (stereo not shown) [CBK263507], the viability at 28.5 h, 10 µM turned out to be 99.6%.

In the case of `CCC(NS(=O)(=O)c1ccc(OC)cc1)C(=O)O` (stereo not shown) [CBK264509], the viability at 28.5 h, 10 µM turned out to be 100%. On to `Cn1ccnc1Sc1ncccc1C(F)(F)F` [CBK093759], for which the viability at 28.5 h, 10 µM turned out to be 91.2%. As to `O=C(c1sccc1NS(=O)(=O)c1ccc(Oc2ccccc2)cc1)N1CCOCC1` [CBK050423], the viability at 28.5 h, 10 µM is 95.3%. As to `CCNc1cc2ccccc2c(-c2cccc(C(F)(F)F)c2)n1` [CBK085772], the viability at 28.5 h, 10 µM came out at 101%. As for `C[C@H](NC(=O)OC1CC[C@@]2(c3ccccc3)CCN(C)[C@H]2C1)c1cccc2ccccc12` (stereo partly shown) [CBK003664], the viability at 28.5 h, 10 µM amounted to 111%.

Regarding `O=S(=O)(CC(F)(F)F)Nc1cccc2cc[nH]c12` [CBK153585], the viability at 28.5 h, 10 µM was found to be 99.5%.

For `COc1ccnc(N2CCc3c(ncn3C3CC3)C2)n1` [CBK304816], the viability at 28.5 h, 10 µM amounted to 95.7%. With `O=C1CC2(CCC3C(C(=O)N4CCCC4)C32)Oc2ccccc21` (stereo not shown) [CBK284969], the viability at 28.5 h, 10 µM was 104%.

On to `CC(C)(N)CN(Cc1ccc(Cl)cc1)C(=O)Nc1ccccc1-c1ccccc1` [CBK004924], for which the viability at 28.5 h, 10 µM was 105%. For `Cc1cc(Cc2cnc(NC(=O)C3CCS(=O)(=O)C3)s2)ccc1Br` (stereo not shown) [CBK298281], the viability at 28.5 h, 10 µM is 90%.

On to `NC(=O)N/N=C/c1cc(Br)cs1` [CBK026434], for which the viability at 28.5 h, 10 µM worked out at 81.8%. Turning to `COc1ccc2c(c1OC)C(=O)N1C2SC(C)(C)C1C(=O)O` (stereo not shown) [CBK011479], the viability at 28.5 h, 10 µM was 98.9%. Take `CN1CCN(C(=O)CSc2nc(-c3cccs3)cc(C(F)(F)F)n2)CC1` [CBK307372]: the viability at 28.5 h, 10 µM worked out at 92.3%.

Turning to `COC(=O)CNC(c1cc(Br)ccc1N)c1ccccc1Cl` (stereo not shown) [CBK262605], the viability at 28.5 h, 10 µM amounted to 89%. Take `CCCOc1ccc(Cc2nc(N(C)C)cc(N(C)C)n2)cc1` [CBK008318]: the viability at 28.5 h, 10 µM stood at 102%. On to `Cc1ccc(C(=O)N2CCC(c3nn(C)c4ncccc34)CC2)s1` [CBK284988], for which the viability at 28.5 h, 10 µM is 86.1%. Take `Cn1c(=O)c2c(ncn2CC(=O)Nc2ccc(C#N)cc2)n(C)c1=O` [CBK133466]: the viability at 28.5 h, 10 µM turned out to be 90.9%. Consider `Cc1cc(OC(F)(F)F)ccc1NS(=O)(=O)c1cnn(-c2ccccc2)c1C` [CBK062354], for which the viability at 28.5 h, 10 µM stood at 91.1%. For the molecule `CN(C)Cc1ccc(-c2cc3occ(-c4ccccc4)c3c(=O)n2C)cc1` [CBK025372], the viability at 28.5 h, 10 µM turned out to be 103%. As to `CC(=O)c1ccc(-c2nccnc2N2CCN(c3ccncc3)CC2)s1` [CBK037015], the viability at 28.5 h, 10 µM stood at 95.8%. Regarding `O=C1c2ccccc2C(=O)N1CCc1nnn[nH]1` [CBK007829], the viability at 28.5 h, 10 µM was found to be 111%.

With `COC(=O)[C@@H](NC(=O)C1CCN(C(=O)OCc2ccccc2)CC1)c1ccccc1` [CBK081468], the viability at 28.5 h, 10 µM worked out at 107%. In the case of `O=C(O)C1CSC(c2cccc(Cl)c2Cl)N1` (stereo not shown) [CBK077526], the viability at 28.5 h, 10 µM came out at 106%. Regarding `Cc1[nH]c2ccccc2c1C(=O)CCC(=O)O` [CBK260871], the viability at 28.5 h, 10 µM was 95.5%. As for `CCOC(=O)c1c(NC(=O)/C=C/C(=O)O)sc2c1CCCCC2` [CBK265299], the viability at 28.5 h, 10 µM was found to be 91.5%. The figure for `Cc1ccc2oc(-c3ccc(C)c(NC(=O)c4cc([N+](=O)[O-])ccc4Cl)c3)nc2c1` [CBK263055] is 94.5%; for `OC[C@H]1O[C@@H](n2cnc3c(Cl)ncnc32)C(O)[C@H]1O` (stereo partly shown) [CBK201266] it is 99.1%; for `O=C(Cn1c(-c2cncs2)nc2ccccc21)NCc1ccccc1` [CBK264705] it is 103%.

As for `NS(=O)(=O)c1ccc(NC(=O)C2Cc3ccccc3CN2S(=O)(=O)c2ccc(F)cc2)cc1` (stereo not shown) [CBK265208], the viability at 28.5 h, 10 µM stood at 103%. On to `O=[N+]([O-])c1nn(-c2ccc3c(c2)OCCO3)[n+]([O-])c1NCCN1CCN(c2ccccc2F)CC1` [CBK268314], for which the viability at 28.5 h, 10 µM was 109%.

With `CCc1nccn1CC(=O)NCC(C)n1nc(C)cc1C` (stereo not shown) [CBK281638], the viability at 28.5 h, 10 µM was found to be 80.4%. With `CCC(CN1CCN(C)CC1)NC(=O)C1(c2cccc(F)c2)CC1` (stereo not shown) [CBK282786], the viability at 28.5 h, 10 µM is 110%. The figure for `COC(=O)C1=C(C)N(CCc2ccccc2)C(=O)C1(NC(=O)c1ccccc1)C(F)(F)F` (stereo not shown) [CBK267477] is 86%; for `CC1CCCCN1C(=O)c1ccc(-n2ccnc2)c(-n2cccc2)c1` (stereo not shown) [CBK284832] it is 95.5%; for `O=C(Nc1ccc(Cl)cc1Cl)NC(Cc1ccc(O)cc1)C(=O)O` (stereo not shown) [CBK267386] it is 90.9%.

For `O=c1cc(CO)oc(CN2CCCCCC2)c1O` [CBK288363], the viability at 28.5 h, 10 µM is 97.7%. The figure for `N#CCCCN1CCC(Oc2nccnc2OCc2cccc(C(F)(F)F)c2F)CC1` [CBK153646] is 100%; for `COc1cccc(NC(=O)c2ccnc(Cl)c2)c1` [CBK174661] it is 104%. Under `COc1ccc(Cc2nnc(Nc3ccc(OC)cc3)[nH]c2=O)cc1` [CBK287385] stands 92.9%; under `O=C1CCC(=O)N1CCOc1nccnc1N1CCN(CCc2ccccc2)CC1` [CBK084302], 99.4%.

For `Cc1ccc(-c2cnc(NC(=O)Cn3cccn3)n2C)cc1C` [CBK281727], the viability at 28.5 h, 10 µM is 102%. In the case of `Fc1ccc(C2=Nn3cnnc3SC2)c(F)c1` [CBK288078], the viability at 28.5 h, 10 µM turned out to be 97%. Take `CCc1nccn1CCC(=O)Nc1ccc2c(c1)nc(CC)n2CC` [CBK281629]: the viability at 28.5 h, 10 µM came out at 81.2%. As to `NC1OC(COC(=O)c2ccccc2)C(OC(=O)c2ccccc2)C1OC(=O)c1ccccc1` (stereo not shown) [CBK010282], the viability at 28.5 h, 10 µM worked out at 95.3%. Under `O=C(CC1SC(NC2CCCCC2)=NC1=O)Nc1cc(Cl)ccc1Cl` (stereo not shown) [CBK059501] stands 91%.

What is called viability is a read-out of living cells in per cent, often relative to untreated cells.
